Where only a bound is given, the exact number is not on record here.

One series in a line: logP (HCOOH). Type of series: physicochemical. The conditions noted are these: for chromatographic logP: HCOOH (formic acid).
The subject of series [1] is Spodoptera litura third instar larvae. The series is described as follows: Test against tobacco cutworm (Spodoptera litura) larvae. In kind it is in vivo. The conditions noted are these: active compound concentration 100 ppm; immersed sweet potato leaves; after 7 days.
Procedure: Unless not mentioned otherwise, the test solutions were prepared as follows:
Containing as solvent: Dimethylformamide, 3 parts by weight; and as emulsifier: Polyoxyethylene alkyl phenyl ether, 1 part by weight
Test Against Tobacco Cutworm (Spodoptera litura) Larvae
Leaves of sweet potato were immersed in the test solution at the appropriate concentration, and the leaves were dried in air. The leaves were then placed in a petri dish having a diameter of 9 cm, and ten Spodoptera litura at third instar larvae were released therein. The petri dishes were placed in a temperature-controlled chamber at 25° C. After 2 days and 4 days more sweet potato leaves were added. After 7 days, the number of dead larvae was counted to calculate the insecticidal activity. An insecticidal activity of 100% means that all larvae were killed, whereas an insecticidal activity of 0% means that no larva was killed.
Series [2] has as its system mustard beetle larvae (Phaedon cochleariae). The following applies: application rate 500 g/ha; sprayed Chinese cabbage leaf-disks; after 7 days. On the procedure:
Phaedon Cochleariae —Test; (Spray Application)
Chinese cabbage (Brassica pekinesis) leaf-disks are sprayed with a preparation of the active ingredient of the desired concentration. Once dry, the leaf disks are infested with mustard beetle larvae (Phaedon cochleariae).
After 7 days mortality in % is determined.

Series [3] has as its system green peach aphid (Myzus persicae). Description: whole plant or invertebrate. The conditions noted are these: in Brassica rapa, 144 h, read-out: mortality in % (aphids killed). The protocol: Myzus Persicae—Test; (Spray Application) 2
Solvent: 78.0 parts by weight acetone • 1.5 parts by weight dimethylformamide Emulsifier: 0.5 parts by weight alkylarylpolyglcolether
After 6 days mortality in % is determined.

Regarding `CCc1ncccc1C(=O)Nc1c(NC2CC2)ncnc1-c1ccc(Cn2nc(C(F)(F)F)nc2C(F)(F)F)cc1` [1-258], the “logP (HCOOH)” value in the series “logP (HCOOH)” (Table 2) worked out at 2.07. In series [1], the insecticidal activity came out at 100%.
The like results for `CCc1ncccc1C(=O)Nc1c(NC2CC2)ncnc1-c1ccc(Oc2ncc(C(F)(F)F)cc2Cl)cc1` [1-310] were, in that order, 1.84 and 100%.
Regarding `O=C(Nc1c(NC2CC2)ncnc1-c1ccc(F)cc1F)c1cccnc1CC(F)(F)F` [1-254], the “logP (HCOOH)” value in “logP (HCOOH)” (Table 2) turned out to be 1.83. The insecticidal activity in series [1] is reported as 100%.
The like results for `CCCc1ncccc1C(=O)Nc1c(NC2CC2)ncnc1-c1ccc(Cn2nc(C(F)(F)F)nc2C(F)(F)F)cc1` [1-264] were, in that order, 1.9 and 100%.
As to `CCc1ccccc1C(=O)Nc1c(NC2CC2)nc(C)nc1-c1ccccc1` [1-280], the “mortality in % (beetle larvae killed)” value in series [2] is 1-280%.
For `O=C(Nc1c(NC2CC2)ncnc1-c1ccc(Cl)cc1)c1cccnc1C1CC1` [1-236], in series [1], the insecticidal activity was 100%.
`O=C(Nc1c(NC2CC2)nc(Cl)nc1-c1ccc(F)cc1)c1cccnc1CC(F)(F)F` [1-325] registered an insecticidal activity in series [1] of 100%.
Same read-out and setting: next, `O=C(Nc1c(NC2CC2)ncnc1-c1ccc(F)cc1F)c1cccnc1C1CC1` [1-240]: 100%; `CCc1ncccc1C(=O)Nc1c(Cl)ncnc1Nc1ccc(F)cc1` [5-2]: 100%; `O=C(Nc1c(NC2CC2)ncnc1-c1ccc(Cn2nc(C(F)(F)F)nc2C(F)(F)F)cc1)c1cccnc1C1CC1` [1-259]: 100%.
Consider `CCc1ncccc1C(=O)Nc1c(NC2CC2)ncnc1-c1ccc(Cl)cc1` [1-177, N-[4-(4-Chlorophenyl)-6-cyclopropylaminopyemidin-5-yl]-2-ethylnicotinamide], for which, in “logP (HCOOH)” (Table 2), the chromatographic logP amounted to 1.31. The compound further yielded an insecticidal activity in series [1] of 100%.
Compound `O=C(Nc1c(NC2CC2)ncnc1-c1ccc(OC(F)(F)F)cc1)c1cccnc1C1CC1` [1-243] displayed an insecticidal activity in series [1] of 100%.
On to `CCc1ncccc1C(=O)Nc1c(Cl)ncnc1NC1CC1` [3-1, N-(4-Chloro-6-cyclopropylaminopyrimidin-5-yl)-2-ethylnicotinamide], for which, in the series “logP (HCOOH)” (Table 4), the chromatographic logP was determined as 0.79. In addition, the mortality at 500 g/ha in series [3] is ≥ 80%.
`CCCc1ncccc1C(=O)Nc1c(NC2CC2)ncnc1-c1ccc(C#N)cc1` [1-246]: the insecticidal activity in series [1] worked out at 100%.
On the same count and under the same terms, the same measure for `CCCc1ncccc1C(=O)Nc1c(NC2CC2)ncnc1-c1ccc(Cl)cc1Cl` [1-244]: 100%.
In turn, `CCc1ncccc1C(=O)Nc1c(NC2CC2)ncnc1-c1ccc(Oc2nc(C(F)(F)F)cc(C(F)(F)C(F)(F)F)n2)cc1` [1-317] displayed an insecticidal activity in series [1] of 100%.
Regarding `CCc1ncccc1C(=O)Nc1c(NC2CC2)ncnc1-c1ccc(Cn2nc(C(F)(F)C(F)(F)F)cc2C(F)(F)F)cc1` [1-247], the insecticidal activity in series [1] is listed as 100%.
On to `O=C(Nc1c(NC2CC2)ncnc1-c1ccc(Cn2nc(C(F)(F)C(F)(F)F)cc2C(F)(F)F)cc1)c1cccnc1C1CC1` [1-253], for which the insecticidal activity in series [1] was determined as 100%.
On the same count and under the same terms, next, `O=C(Nc1c(NC2CC2)ncnc1-c1ccc(Cl)cc1)c1cccnc1C(F)(F)C(F)(F)F` [1-241]: 100%.

(Values after patent publication US20120071496A1, “Aminopyrimidinamides As Pest Control Agents” (Bayer CropScience AG, priority 2009, published 2012).)
